Test results reported in paper PMC6272854, “Two New Bioactive α-Pyrones from Hypericum japonicum” (Molecules, 2016).

Columns and labels:
[1] = tested on: Kaposi’s sarcoma associated herpesvirus (KSHV); assay: microbe, parasite or virus in culture; assay type: cell-based; conditions: Human gammaherpesvirus 8, Vero, 48 h
Description: (§1) Human gamma herpes viruses such as Kaposi’s sarcoma-associated herpes virus (KSHV) is a type of pathogenic virus related to Kaposi’s sarcoma, like epidemic KS, posttransplant KS, multicentric Castleman’s disease, and primary effusion lymphoma. Anti-infection towards lytic replication of KSHV plays a pivotal role as decreased a risk of KS, which were evidenced in cases of AIDS-associated epidemic KS patients. In our exhaustive study to explore bioactivities of metabolites, an inhibition assay on lytic replication of KSHV was investigated for compounds 1 and 2 referring to the previous experiments. […] The details of the dose-dependent manner were shown in Figure S1, Supplementary Materials. More elaborate procedures of anti-KSHV assay were also stated in Supplementary Materials.
(§2) Figure 5 The effects of positive control cidofovir (CDV), 1 and 2 on human iSLK.219 cells viabilities and on lytic replication of KSHV infecting Vero cells were measured in vitro.
(§3) Human iSLK.219 cells were used to determine the antiviral activity of desired compounds against KSHV. The cells harbor the rKSHV.219 virus that encodes green fluorescent protein (GFP) under control of the elongation factor 1α promoter (EF-1α) and lytic replication of KSHV was reactivated with 1 µg/mL doxycycline (Dox) (Beyotime) and 1.2 mM sodium butyrate (NaB) (Sigama). Cells grown to 70% confluence 96-well tissue culture plates were treated with indicated concentrations of compounds in present of Dox and NaB. Then cell viability was assessed at 48 h post drugs-induction by AlamarBlue® Cell Viability Assay (Invitrogen) according to the manufacturer’s protocol. The luminescent signal was measured using the Envison 2102 Multilabel Reader (Perkin Elmer, Waltham, MA, USA). The 50% cytotoxic concentration (CC50) for each compound was calculated from these dose-response curves using Graphpad5.0 Prism. The results were presented as mean values with standard deviations (n = 3) […]
(§4) The antiviral effects of compounds on KSHV were determined by infectivity assay as previously described. The supernatants from iSLK.219-treated or untreated with the compounds in the presence of Dox and NaB were collected at 48 h. Then, the supernatants were used to infect the Vero cells seeded in a 96-well plate as previously reported using centrifugation at 1500× g for 60 min [4]. The supernatants were then removed and replaced with flash DMEM medium. At 48 h, the expression of GFP per well in Vero cells was detected and analyzed using the Operetta High-Content Screening System (HCS) (Perkin Elmer). Nine image fields per well were recorded by the automated microscope based HCS and the GFP intensity per well was calculated using the Harmony 3.5 software (Perkin Elmer). Data were normalized as the fold change compared to the DMSO control. The IC50 (50% effective concentration) values correspond to compound concentrations required to reduce quantitative expression of the intensity of GFP by 50%. The results are presented as the mean values with […]
(§5) Figure S1. HRESIMS spectrum of japopyrone A (1).

[2] = tested on: Kaposi's sarcoma associated herpesvirus (KSHV) lytic replication; assay: in vitro; assay type: cell-based; conditions: human; CC50 (iSLK.219 cells) / IC50 (KSHV lytic replication); read-out: Selective Index (CC50/IC50)
Description: as §1, §2, §3, §4, §5

[3] = Cell viability of iSLK.219 cells (AlamarBlue Cell Viability Assay); assay type: cell-based; conditions: iSLK.219 cells harbouring rKSHV.219 virus, human iSLK.219 cells, in presence of Dox and NaB
Experimental: as §2, §3
as §4, with “control.” for “control. The IC50 (50% effective concentration) values correspond to compound concentrations required to reduce quantitative expression of the intensity of GFP by 50%. The results are presented as the mean values with”

[4] = Cytotoxicity assay against human cancer cell line SW480; assay type: cell-based; conditions: SW480 cells
Description: (§6) Natural products have provided a rich resource for the discovery of new drugs, innovative therapeutic agents, and lead structures. In our studious research towards the discovery for new lead compounds and useful bioactivities from Chinese traditional herbs, several bioactivity screenings such as cytotoxicity assays against five human cancer cell lines (HL-60, SMMC-7721, A-549, MCF-7, and SW480), inhibitory activities on NO production, and inhibitory activities on β-site amyloid precursor protein cleaving enzyme 1 (BACE1), were carried out for compounds 1 and 2.

[5] = tested on: NO production; assay: NO production inhibition assay; assay type: cell-based
Description: as §6

[6] = molecular target: β-site amyloid precursor protein cleaving enzyme 1 (BACE1) (Homo sapiens, UniProt P56817); assay: BACE1 inhibition assay; assay type: biochemical
Sequence of β-site amyloid precursor protein cleaving enzyme 1 (BACE1) (P56817 22-501 limits assumed, species assumed): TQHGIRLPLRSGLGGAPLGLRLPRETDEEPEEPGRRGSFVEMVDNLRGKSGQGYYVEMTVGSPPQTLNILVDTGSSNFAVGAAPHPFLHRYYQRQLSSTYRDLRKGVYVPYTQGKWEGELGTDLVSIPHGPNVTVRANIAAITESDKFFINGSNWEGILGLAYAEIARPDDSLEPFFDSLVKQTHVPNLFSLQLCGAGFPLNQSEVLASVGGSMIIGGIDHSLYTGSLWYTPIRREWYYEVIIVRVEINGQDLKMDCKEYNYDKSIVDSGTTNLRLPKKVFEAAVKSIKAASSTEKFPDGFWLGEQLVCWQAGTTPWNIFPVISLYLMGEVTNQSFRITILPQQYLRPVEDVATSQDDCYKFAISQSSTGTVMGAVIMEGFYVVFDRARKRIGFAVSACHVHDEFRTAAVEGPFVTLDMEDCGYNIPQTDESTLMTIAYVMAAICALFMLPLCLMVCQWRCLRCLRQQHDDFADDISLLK
Description: as §6

[7] = Cytotoxicity assay against human cancer cell line A-549; assay type: cell-based; conditions: A-549 cells
Description: as §6

[8] = Cytotoxicity assay against human cancer cell line HL-60; assay type: cell-based; conditions: HL-60 cells
Description: as §6

[9] = Cytotoxicity assay against human cancer cell line MCF-7; assay type: cell-based; conditions: MCF-7 cells
Description: as §6

[10] = Cytotoxicity assay against human cancer cell line SMMC-7721; assay type: cell-based; conditions: SMMC-7721 cells
Description: as §6

SMILES	IC50 [1] [µM]	selectivity ratio at 48 h [2]	CC50 at 48 h [3] [µM]	IC50 [4] [µM]	IC50 [5] [µM]	IC50 [6] [µM]	IC50 [7] [µM]	IC50 [8] [µM]	IC50 [9] [µM]	IC50 [10] [µM]
Nc1ccn(C[C@@H](CO)OCP(=O)(O)O)c(=O)n1 [CDV, cidofovir, reference compound]	< 0.004	> 250	> 1	–	–	–	–	–	–	–
COc1cc(-c2cc3c(c(=O)o2)C(C)(C)[C@H](C)O3)ccc1O [Compound 1, japopyrone A]	85.3	> 2.34	> 200	> 40	> 25	> 40	> 40	> 40	> 40	> 40
COc1ccc(-c2cc3c(c(=O)o2)C(C)(C)[C@H](C)O3)cc1OC [Compound 2, japopyrone B]	29.5	> 6.79	> 200	> 40	> 25	> 40	> 40	> 40	> 40	> 40
